pEC50: −log10 of the molar value. Counter-ions that a name gives are not always drawn.
Tested on: eNOS promoter
Assay: Activation of eNOS transcription (eNOS promoter firefly luciferase reporter gene assay)
Type: cell-based
Details: human endothelial cell line stably transfected with eNOS promoter-luciferase construct; 18 h incubation; determined graphically; read-out: EC50 values of transcription induction ratios (TIR)
Method: Activation of eNOS transcription was measured as described in detail by Li et al., “Activation of protein kinase C alpha and/or epsilon enhances transcription of the human endothelial nitric oxide synthase gene”, Mol. Pharmacol. 53 (1998) 630. Briefly, a 3.5 kB long fragment 5′ of the starting codon of the eNOS gene was cloned, sequenced and cloned in firefly luciferase expression plasmids to monitor activation of the eNOS promoter by reporter gene activity. A human endothelial cell line stable transfected and expressing this promoter-reporter construct was used for compound testing. Cells were incubated for 18 h with the compounds.
All compounds were dissolved in sterile dimethyl sulfoxide (DMSO). A final concentration of 0.5% DMSO in complete medium was allowed. Induction of reporter gene expression in these cells was measured using a standard luciferase assay system (Promega, Cat. No. E150) according to the manufacturer's instructions. Luciferase induction in cells incubated with compounds were compared to those incubated with solvent alone. The ratio of both activities (transcription induction ratio, TIR) was plotted as a function of compound concentration. […] EC50 values of transcription induction ratios as a function of compound concentration were determined graphically.

pEC50 | Compound
> 6.30 | CN(C)C(=O)[C@@H]1C[C@H]1c1ccc(-c2ccccc2F)nc1 (relative stereo) [Example 49, trans-2-[6-(2-Fluoro-phenyl)-pyridin-3-yl]-cyclopropanecarboxylic acid dimethylamide trifluoroacetic acid salt]
5.30 to 6.30 | O=C([C@@H]1C[C@H]1c1ccc(-c2ccc(F)cc2)nc1)N1CCCC1 (relative stereo) [Example 46, {trans-2-[6-(4-fluoro-phenyl)-pyridin-3-yl]-cyclopropyl}-(pyrrolidin-1-yl)-methanone trifluoroacetic acid salt]

Source: US8299102B2, “Heteroarylcyclopropanecarboxamides and their use as pharmaceuticals” (Sanofi, priority 2006, dated 2012)
